This assay has as its system Beet Armyworm (Spodoptera exigua). The experiment in a line: Bioassay on Beet Armyworm (BAW), 128-well diet tray assay. The format is in vivo. The following applies: percent mortality of second instar larvae, 50 μg/cm^2 on artificial diet, five to seven days, 25° C.; Table 3. On the procedure: Certain molecules disclosed in this document were tested against BAW and CEW and CL using procedures described in the following examples. In the reporting of the results, the “BAW & CEW & CL Rating Table” was used (See Table Section).
Bioassays on BAW (Spodoptera exigua)
Bioassays on BAW were conducted using a 128-well diet tray assay. one to five second instar BAW larvae were placed in each well (3 mL) of the diet tray that had been previously filled with 1 mL of artificial diet to which 50 μg/cm^2 of the test compound (dissolved in 50 μL of 90:10 acetone-water mixture) had been applied (to each of eight wells) and then allowed to dry. Trays were covered with a clear self-adhesive cover, and held at 25° C., 14:10 light-dark for five to seven days. Percent mortality was recorded for the larvae in each well; activity in the eight wells was then averaged. The results are indicated in the table entitled “Table 3: Assay Results” (See Table Section).

The structures appear in SMILES notation.

As for `O=C(CNC(=O)c1ccc(/C=C/C(c2cc(Cl)c(Cl)c(Cl)c2)C(F)(F)F)cc1Br)NCC(F)(F)F` (stereo not shown) [AC66], the “BAW Rating” value is “A (50-100)”. Consider `O=C(NC1CSC1)c1ccc(/C=C/C(c2cc(Cl)c(F)c(Cl)c2)C(F)(F)F)cc1F` (stereo not shown) [AC67], for which the “BAW Rating” value is on record as “A (50-100)”.

Turning to `O=C(CNC(=O)c1ccc(/C=C/C(c2cc(Cl)c(F)c(Cl)c2)C(F)(F)F)cc1F)NCC(F)(F)F` (stereo not shown) [AC68], the “BAW Rating” value is “A (50-100)”. Consider `Cc1cc(/C=C/C(c2cc(Cl)c(F)c(Cl)c2)C(F)(F)F)ccc1C(=O)NCC(=O)NCC(F)(F)F` (stereo not shown) [AC69], for which the “BAW Rating” value is listed as “A (50-100)”. With `COc1cc(/C=C/C(c2cc(Cl)c(F)c(Cl)c2)C(F)(F)F)ccc1C(=O)NC1CSC1` (stereo not shown) [AC71], the “BAW Rating” value is on record as “A (50-100)”.

Regarding `CCc1cc(/C=C/C(c2cc(Cl)c(F)c(Cl)c2)C(F)(F)F)ccc1C(=O)NCc1ccc(Cl)nc1` (stereo not shown) [AC72], the “BAW Rating” value is recorded as “A (50-100)”. As for `O=C(NCc1ccc(C(F)(F)F)nc1)c1ccc(/C=C/C(c2cc(Cl)c(Cl)c(Cl)c2)C(F)(F)F)cc1Br` (stereo not shown) [AC75], the “BAW Rating” value is given as “A (50-100)”. For `Cc1cc(/C=C/C(c2cc(Cl)c(F)c(Cl)c2)C(F)(F)F)ccc1C(=O)NCc1cc(Cl)ccn1` (stereo not shown) [AC77], the “BAW Rating” value was “A (50-100)”. For the compound `Cc1cc(/C=C/C(c2cc(Cl)c(Cl)c(Cl)c2)C(F)(F)F)ccc1C(=O)NCC(=O)NCC(F)(F)F` (stereo not shown) [AC78], the “BAW Rating” value was “A (50-100)”. Then `O=C(CNC(=O)c1ccc(/C=C/C(c2cc(Cl)c(F)c(Cl)c2)C(F)(F)F)cc1Br)NCC(F)(F)F` (stereo not shown) [AC79, (E)-2-Bromo-4-(3-(3,5-dichloro-4-fluorophenyl)-4,4,4-trifluorobut-1-en-1-yl)-N-(2-oxo-2-((2,2,2-trifluoroethyl)amino)ethyl)benzamide], with “A (50-100)”; and `CCc1cc(/C=C/C(c2cc(Cl)c(F)c(Cl)c2)C(F)(F)F)ccc1C(=O)NCC(=O)NCC(F)(F)F` (stereo not shown) [AC80], with “A (50-100)”. `Cc1cc(/C=C/C(c2cc(Cl)cc(Cl)c2)C(F)(F)F)ccc1C(=O)NCC(=O)NC1CS(=O)(=O)C1` (stereo not shown) [AC81]: the “BAW Rating” value is “A (50-100)”. For `O=C(NC1CS(=O)(=O)C1)c1ccc(/C=C/C(c2cc(Cl)cc(Cl)c2)C(F)(F)F)cc1F` (stereo not shown) [AC83, (E)-4-(3-(3,5-Dichlorophenyl)-4,4,4-trifluorobut-1-en-1-yl)-N-(1,1-dioxidothietan-3-yl)-2-fluorobenzamide], the “BAW Rating” value was “A (50-100)”. As for `O=C(NC1CS(=O)(=O)C1)c1ccc(/C=C/C(c2cc(Cl)c(F)c(Cl)c2)C(F)(F)F)cc1F` (stereo not shown) [AC84], the entry is “A (50-100)”; as for `COc1cc(/C=C/C(c2cc(Cl)c(F)c(Cl)c2)C(F)(F)F)ccc1C(=O)NC1CS(=O)(=O)C1` (stereo not shown) [AC85], “A (50-100)”. Then `CCc1cc(/C=C/C(c2cc(Cl)c(F)c(Cl)c2)C(F)(F)F)ccc1C(=O)NC1CS(=O)(=O)C1` (stereo not shown) [AC86], with “A (50-100)”; and `O=C(NC1C[S+]([O-])C1)c1ccc(/C=C/C(c2cc(Cl)c(F)c(Cl)c2)C(F)(F)F)cc1F` (stereo not shown) [AC87], with “A (50-100)”; and `Cc1cc(/C=C/C(c2cc(Cl)cc(Cl)c2)C(F)(F)F)ccc1C(=O)NCc1nnc(C2CC2)o1` (stereo not shown) [AC89, (E)-N-((5-Cyclopropyl-1,3,4-oxadiazol-2-yl)methyl)-4-(3-(3,5-dichlorophenyl)-4,4,4-trifluorobut-1-en-1-yl)-2-methylbenzamide], with “A (50-100)”. With `FC(F)(F)CNC(=S)CNC(=S)c1ccc(/C=C/C(c2cc(Cl)c(Cl)c(Cl)c2)C(F)(F)F)cc1Br` (stereo not shown) [AC90, (E)-2-Bromo-N-(2-thioxo-2-((2,2,2-trifluoroethyl)amino)ethyl)-4-(4,4,4-trifluoro-3-(3,4,5-trichlorophenyl)but-1-en-1-yl)benzothioamide], the “BAW Rating” value was “A (50-100)”.

As to `O=C(CNC(=S)c1ccc(/C=C/C(c2cc(Cl)c(Cl)c(Cl)c2)C(F)(F)F)cc1Br)NCC(F)(F)F` (stereo not shown) [AC91, (E)-2-(2-Bromo-4-(4,4,4-trifluoro-3-(3,4,5-trichlorophenyl)but-1-en-1-yl)phenylthioamido)-N-(2,2,2-trifluoroethyl)acetamide], the “BAW Rating” value is on record as “A (50-100)”.

Turning to `O=C(NCC(=S)NCC(F)(F)F)c1ccc(/C=C/C(c2cc(Cl)c(Cl)c(Cl)c2)C(F)(F)F)cc1Br` (stereo not shown) [AC92, (E)-2-Bromo-N-(2-thioxo-2-((2,2,2-trifluoroethyl)amino)ethyl)-4-(4,4,4-trifluoro-3-(3,4,5-trichlorophenyl)but-1-en-1-yl)benzamide], the “BAW Rating” value was “A (50-100)”. For `Cc1cc(/C=C\C(c2cc(Cl)cc(Cl)c2)C(F)(F)F)ccc1C(=O)NCC(=O)NC1CC1` (stereo not shown) [AC93], the “BAW Rating” value is “A (50-100)”. With `O=C(CNC(=O)c1ccc(/C=C\C(c2cc(Cl)c(Cl)c(Cl)c2)C(F)(F)F)cc1Br)NCC(F)(F)F` (stereo not shown) [AC95, (Z)-2-Bromo-N-(2-oxo-2-((2,2,2-trifluoroethyl)amino)ethyl)-4-(4,4,4-trifluoro-3-(3,4,5-trichlorophenyl)but-1-en-1-yl)benzamide], the “BAW Rating” value is listed as “A (50-100)”. Regarding `O=C(CNC(=O)c1ccc(/C=C/C(c2cc(Cl)c(F)c(Cl)c2)C(F)(F)F)cc1[N+](=O)[O-])NCC(F)(F)F` (stereo not shown) [AC98], the “BAW Rating” value is recorded as “A (50-100)”. Then `O=C(CNC(=O)c1ccc(/C=C/C(c2ccc(F)c(Cl)c2)C(F)(F)F)cc1Br)NCC(F)(F)F` (stereo not shown) [AC99], with “A (50-100)”; and `CC(=O)N1CCC(NC(=O)c2ccc(/C=C/C(c3cc(Cl)c(Cl)c(Cl)c3)C(F)(F)F)cc2Br)CC1` (stereo not shown) [AC103, (E)-N-(1-Acetylpiperidin-4-yl)-2-bromo-4-(4,4,4-trifluoro-3-(3,4,5-trichlorophenyl)but-1-en-1-yl)benzamide], with “A (50-100)”; and `O=C(NC1CCN(C(=O)CC(F)(F)F)CC1)c1ccc(/C=C/C(c2cc(Cl)c(Cl)c(Cl)c2)C(F)(F)F)cc1Br` (stereo not shown) [AC104, (E)-2-Bromo-4-(4,4,4-trifluoro-3-(3,4,5-trichlorophenyl)but-1-en-1-yl)-N-(1-(3,3,3-trifluoropropanoyl)piperidin-4-yl)benzamide], with “A (50-100)”. On to `CN1CCC(NC(=O)c2ccc(/C=C/C(c3cc(Cl)c(Cl)c(Cl)c3)C(F)(F)F)cc2Br)CC1` (stereo not shown) [AC106, (E)-2-Bromo-N-(1-methylpiperidin-4-yl)-4-(4,4,4-trifluoro-3-(3,4,5-trichlorophenyl)but-1-en-1-yl)benzamide], for which the “BAW Rating” value was “A (50-100)”. As for `N#CCN1CCC(NC(=O)c2ccc(/C=C/C(c3cc(Cl)c(Cl)c(Cl)c3)C(F)(F)F)cc2Br)CC1` (stereo not shown) [AC107], the entry is “B (More than 0-Less than 50)”; as for `O=C(NC1CCN(C2COC2)CC1)c1ccc(/C=C/C(c2cc(Cl)c(Cl)c(Cl)c2)C(F)(F)F)cc1Br` (stereo not shown) [AC108, (E)-2-Bromo-N-(1-(oxetan-3-yl)piperidin-4-yl)-4-(4,4,4-trifluoro-3-(3,4,5-trichlorophenyl)but-1-en-1-yl)benzamide], “B (More than 0-Less than 50)”; as for `CONC(=O)CNC(=O)c1ccc(/C=C/C(c2cc(Cl)c(Cl)c(Cl)c2)C(F)(F)F)cc1Br` (stereo not shown) [AC110], “A (50-100)”.

As for `C=CCNC(=O)CNC(=O)c1ccc(/C=C/C(c2cc(Cl)c(Cl)c(Cl)c2)C(F)(F)F)cc1Br` (stereo not shown) [AC111], the “BAW Rating” value is “A (50-100)”.

Turning to `O=C(NCCc1ccc(Cl)nc1)c1ccc(/C=C/C(c2cc(Cl)c(Cl)c(Cl)c2)C(F)(F)F)cc1Br` (stereo not shown) [AC113], the “BAW Rating” value is “B (More than 0-Less than 50)”. With `O=C(NC1CCNCC1)c1ccc(/C=C/C(c2cc(Cl)c(Cl)c(Cl)c2)C(F)(F)F)cc1Br` (stereo not shown) [AC114, (E)-2-Bromo-N-(piperidin-4-yl)-4-(4,4,4-trifluoro-3-(3,4,5-trichlorophenyl)but-1-en-1-yl)benzamide], the “BAW Rating” value is given as “A (50-100)”. As for `Cc1cc(/C=C/C(c2cc(Cl)cc(Cl)c2)C(F)(F)F)ccc1C(=S)NCc1ccc(Cl)nc1` (stereo not shown) [AC115, (E)-N-((6-Chloropyridin-3-yl)methyl)-4-(3-(3,5-dichlorophenyl)-4,4,4-trifluorobut-1-en-1-yl)-2-methylbenzothioamide], the entry is “A (50-100)”. As for `Cc1cc(/C=C/C(c2cc(Cl)cc(Cl)c2)C(F)(F)F)ccc1C(=O)N(C)Cc1ccc(Cl)nc1` (stereo not shown) [AC117], the entry is “A (50-100)”; as for `Cc1cc(/C=C/C(c2cc(Cl)cc(Cl)c2)C(F)(F)F)ccc1C(=O)NCC1CCCO1` (stereo not shown) [AC118], “A (50-100)”; as for `O=C(CC(F)(F)F)NC1CCCc2cc(/C=C/C(c3cc(Cl)c(Cl)c(Cl)c3)C(F)(F)F)ccc21` (stereo not shown) [BC5], “A (50-100)”. On to `O=C(NC1CCc2cc(/C=C/C(c3cc(Cl)c(Cl)c(Cl)c3)C(F)(F)F)ccc21)C1CC1` (stereo not shown) [BC6], for which the “BAW Rating” value is listed as “A (50-100)”. For the compound `O=C(NC1CCCc2cc(/C=C/C(c3cc(Cl)c(Cl)c(Cl)c3)C(F)(F)F)ccc21)C1CC1` (stereo not shown) [BC7], the “BAW Rating” value was “A (50-100)”.

Turning to `O=C(CC(F)(F)F)NC1CCc2cc(/C=C/C(c3cc(Cl)c(F)c(Cl)c3)C(F)(F)F)ccc21` (stereo not shown) [BC8], the “BAW Rating” value is on record as “A (50-100)”. Regarding `O=C(Cc1ccc(Cl)nc1)NC1CCc2cc(/C=C/C(c3cc(Cl)c(F)c(Cl)c3)C(F)(F)F)ccc21` (stereo not shown) [BC9], the “BAW Rating” value was “A (50-100)”. With `Fc1c(Cl)cc(C(/C=C/c2ccc3c(c2)CCC3NCCC(F)(F)F)C(F)(F)F)cc1Cl` (stereo not shown) [BC10, (E)-5-(3-(3,5-Dichloro-4-fluorophenyl)-4,4,4-trifluorobut-1-en-1-yl)-N-(3,3,3-trifluoropropyl)-2,3-dihydro-1H-inden-1-amine], the “BAW Rating” value is “A (50-100)”.

(Values after US9510592B2, “Pesticidal compositions and processes related thereto” (Dow AgroSciences LLC, priority 2012, dated 2016).)
